Results on 18 compounds are retold here after PubChem BioAssay AID278 (DTP/NCI, 2004).

SMILES strings stand for the structures. Results filed as inconclusive are left out.

The test has as its system nude mice, A549 intrarenal xenograft, tumor weight change. As to the kind of experiment: NCI In Vivo Anticancer Drug Screen. Data for tumor model A549 Human Adenocarcinoma of Lung with characteristics of Type II Alveolar Epithelial cells (intrarenal inoculation) in NU/NU BALB/C (nude) mice. Particulars: endpoint: mean tumor weight change, higher = larger tumour. In a few lines:
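Mice bearing transplantable tumors were treated and survival or tumor size recorded. Values are given as treated-group measurement divided by vehicle-control measurement (T/C).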

The mark [1] stands for this setting: dose: 50.0 mg/kg/injection, schedule: Q04DX003 (ip), vehicle: saline with Tween-80.
The mark [2] stands for this setting: dose: 100.0 mg/kg/injection, schedule: Q04DX003 (ip), vehicle: saline with Tween-80.
The mark [3] stands for this setting: dose: 200.0 mg/kg/injection, schedule: Q04DX003 (ip), vehicle: saline with Tween-80.
Where [4] appears, read: dose: 25.0 mg/kg/injection, schedule: Q04DX003 (ip), vehicle: saline with Tween-80.
Where [5] appears, read: dose: 100.0 mg/kg/injection, schedule: Q04DX003 (ip), vehicle: saline.
Setting [6] is: dose: 200.0 mg/kg/injection, schedule: Q04DX003 (ip), vehicle: saline.
Where [7] appears, read: dose: 100.0 mg/kg/injection, schedule: Q04DX003 (ip), vehicle: Klucel (hydroxypropylcellulose) (HPC).
The mark [8] stands for this setting: dose: 150.0 mg/kg/injection, schedule: Q04DX003 (ip), vehicle: Klucel (hydroxypropylcellulose) (HPC).
Where [9] appears, read: dose: 300.0 mg/kg/injection, schedule: Q04DX003 (ip), vehicle: Klucel (hydroxypropylcellulose) (HPC).
[10] abbreviates: dose: 150.0 mg/kg/injection, schedule: Q04DX003 (ip), vehicle: saline with Tween-80.
The mark [11] stands for this setting: dose: 300.0 mg/kg/injection, schedule: Q04DX003 (ip), vehicle: saline with Tween-80.

Consider `Cc1cccc(OCC(O)CN2CC2)c1` (configuration not stated), for which the T/C is 82 % of control under setting [1], 46 % of control under setting [2] and 81 % of control under setting [3].
Take `COc1cc2c(c(OC)c1O)-c1ccc(OC)c(=O)cc1[C@@H](NC(=O)C(F)(F)F)CC2`: the T/C runs as follows: (dose: 5.0 mg/kg/injection, schedule: Q04DX003 (ip), vehicle: Klucel (hydroxypropylcellulose) (HPC)) 7 % of control; (dose: 7.2 mg/kg/injection, schedule: Q04DX003 (ip), vehicle: Klucel (hydroxypropylcellulose) (HPC)) 116 % of control; (dose: 10.0 mg/kg/injection, schedule: Q04DX003 (ip), vehicle: Klucel (hydroxypropylcellulose) (HPC)) 48 % of control; (dose: 12.0 mg/kg/injection, schedule: Q04DX003 (ip), vehicle: Klucel (hydroxypropylcellulose) (HPC)) 90 % of control.
For `CN=C(NC)c1ccc(NC(=O)/C=C\c2ccc(/C=C/C(=O)Nc3ccc(C(=NC)NC)cc3)cc2)cc1`, the T/C (dose: 3.13 mg/kg/injection, schedule: Q04DX003 (ip), vehicle: Klucel (hydroxypropylcellulose) (HPC)) is 47 % of control; the T/C (dose: 6.25 mg/kg/injection, schedule: Q04DX003 (ip), vehicle: Klucel (hydroxypropylcellulose) (HPC)) was 67 % of control; the T/C (dose: 12.5 mg/kg/injection, schedule: Q04DX003 (ip), vehicle: Klucel (hydroxypropylcellulose) (HPC)) is 47 % of control.
Take `CCOC(=O)C1=C(C)O/C(=C/c2cccc(Cl)c2)C1=O`: the T/C by setting is: under setting [4], 48 % of control; under setting [1], 51 % of control; under setting [2], 77 % of control; under setting [3], 18 % of control.
`CC[C@@]1(O)C(=O)OCc2c1cc1n(c2=O)Cc2cc3ccccc3nc2-1`: the T/C by setting is: (dose: 2.0 mg/kg/injection, schedule: Q04DX003 (ip), vehicle: saline with Tween-80) 31 % of control; (dose: 4.0 mg/kg/injection, schedule: Q04DX003 (ip), vehicle: saline with Tween-80) 29 % of control; (dose: 6.0 mg/kg/injection, schedule: Q04DX003 (ip), vehicle: saline with Tween-80) -21 % of control; (dose: 8.0 mg/kg/injection, schedule: Q04DX003 (ip), vehicle: saline with Tween-80) 17 % of control; (dose: 10.0 mg/kg/injection, schedule: Q04DX003 (ip), vehicle: saline with Tween-80) -80 % of control; (dose: 16.0 mg/kg/injection, schedule: Q04DX003 (ip), vehicle: saline with Tween-80) 12 % of control.
For `Nc1nc(Br)nc2c1ncn2C1CC(O)C(CO)O1` (configuration not stated), the T/C runs as follows: (dose: 25.0 mg/kg/injection, schedule: Q04DX003 (ip), vehicle: saline) 92 % of control; (dose: 50.0 mg/kg/injection, schedule: Q04DX003 (ip), vehicle: saline) 121 % of control; under setting [5], 96 % of control; under setting [6], 74 % of control.
Turning to `CC1=CCCC2C1(C)CCC(C)C2(C)Cc1cc(O)ccc1O` (configuration not stated), under setting [7], the T/C is 16 % of control.
In the case of `NC(N)=NS(=O)(=O)c1ccc(NCc2c3ccccc3nc3ccccc23)cc1`, the T/C is 4 % of control under setting [8]; 10 % of control under setting [9]; -10 % of control (dose: 600.0 mg/kg/injection, schedule: Q04DX003 (ip), vehicle: Klucel (hydroxypropylcellulose) (HPC)); -7 % of control (dose: 1200.0 mg/kg/injection, schedule: Q04DX003 (ip), vehicle: Klucel (hydroxypropylcellulose) (HPC)).
With `CO[C@H](/C(C)=C/C=C/C(C)=C/c1coc(C)n1)[C@H](C)[C@H]1C[C@@H](O)[C@@]2(C)O[C@H]2/C=C/[C@@H](C)[C@@H]2C[C@@H](CC(=O)O2)C[C@H]2O[C@@H]2C(=O)O1`, the T/C reads like this: (dose: 0.07 mg/kg/injection, schedule: Q04DX003 (ip), vehicle: other) 71 % of control; (dose: 0.12 mg/kg/injection, schedule: Q04DX003 (ip), vehicle: other) 54 % of control; (dose: 0.13 mg/kg/injection, schedule: Q01DX009 (ip), vehicle: Klucel (hydroxypropylcellulose) (HPC)) 54 % of control; (dose: 0.18 mg/kg/injection, schedule: Q04DX003 (ip), vehicle: Klucel (hydroxypropylcellulose) (HPC)) 57 % of control; (dose: 0.2 mg/kg/injection, schedule: Q01DX009 (ip), vehicle: Klucel (hydroxypropylcellulose) (HPC)) 15 % of control; (dose: 0.2 mg/kg/injection, schedule: Q04DX003 (ip), vehicle: other) 86 % of control. Further, the T/C runs as follows: (dose: 0.3 mg/kg/injection, schedule: Q01DX009 (ip), vehicle: Klucel (hydroxypropylcellulose) (HPC)) 38 % of control; (dose: 0.3 mg/kg/injection, schedule: Q04DX003 (ip), vehicle: Klucel (hydroxypropylcellulose) (HPC)) 41 % of control; (dose: 0.33 mg/kg/injection, schedule: Q04DX003 (ip), vehicle: other) 21 % of control; (dose: 0.5 mg/kg/injection, schedule: Q04DX003 (ip), vehicle: Klucel (hydroxypropylcellulose) (HPC)) 26 % of control; (dose: 0.83 mg/kg/injection, schedule: Q04DX003 (ip), vehicle: Klucel (hydroxypropylcellulose) (HPC)) 21 % of control.
For the compound `CC#CCOCC(O)CCl` (configuration not stated), the T/C was 104 % of control under setting [5]; 90 % of control under setting [6]; 111 % of control (dose: 400.0 mg/kg/injection, schedule: Q04DX003 (ip), vehicle: saline).
Regarding `CCCCNP1(NCCCC)=NP(NCCCC)(NCCCC)=NP(NCCCC)(NCCCC)=NP(NCCCC)(NCCCC)=N1`, the T/C was 111 % of control under setting [10] and 44 % of control under setting [11].
Take `NC(Cc1ccc(N(CCCl)Cc2ccccc2)cc1)C(=O)O` (configuration not stated): the T/C runs as follows: under setting [1], 74 % of control; under setting [2], 32 % of control; under setting [3], 38 % of control.
For `O=C(NC(Cc1ccc(I)cc1)C(=O)O)c1cccc(Br)c1` (configuration not stated), the T/C was 99 % of control under setting [7]; 35 % of control under setting [8]; 45 % of control (dose: 200.0 mg/kg/injection, schedule: Q04DX003 (ip), vehicle: Klucel (hydroxypropylcellulose) (HPC)); 35 % of control under setting [9].
For the compound `Nc1nc2n[nH]nc2c(=O)[nH]1`, the T/C is, setting by setting: (dose: 75.0 mg/kg/injection, schedule: Q04DX003 (ip), vehicle: suspension in saline) 45 % of control; (dose: 150.0 mg/kg/injection, schedule: Q04DX003 (ip), vehicle: suspension in saline) 60 % of control; (dose: 300.0 mg/kg/injection, schedule: Q04DX003 (ip), vehicle: suspension in saline) 22 % of control.
In the case of `COc1ccc(N=N/N=c2\sc3cc(OC)ccc3n2C)cc1`, the T/C was 100 % of control (dose: 30.0 mg/kg/injection, schedule: Q04DX003 (ip), vehicle: saline with Tween-80); 87 % of control (dose: 60.0 mg/kg/injection, schedule: Q04DX003 (ip), vehicle: saline with Tween-80); 73 % of control (dose: 120.0 mg/kg/injection, schedule: Q04DX003 (ip), vehicle: saline with Tween-80); 37 % of control (dose: 240.0 mg/kg/injection, schedule: Q04DX003 (ip), vehicle: saline with Tween-80).
As to `NC(=S)N/N=C/c1cc(=O)c2cc(Cl)ccc2o1`, the T/C by setting is: (dose: 75.0 mg/kg/injection, schedule: Q04DX003 (ip), vehicle: DMSO) 66 % of control; (dose: 150.0 mg/kg/injection, schedule: Q04DX003 (ip), vehicle: other) 15 % of control; (dose: 300.0 mg/kg/injection, schedule: Q04DX003 (ip), vehicle: DMSO) 152 % of control; (dose: 300.0 mg/kg/injection, schedule: Q04DX003 (ip), vehicle: other) 29 % of control; (dose: 600.0 mg/kg/injection, schedule: Q04DX003 (ip), vehicle: DMSO) 150 % of control; (dose: 600.0 mg/kg/injection, schedule: Q04DX003 (ip), vehicle: other) 36 % of control.
Consider `NC(=O)c1cc(Cl)nc2nc(Cl)nc(N)c12`, for which the T/C is 111 % of control under setting [10]; 89 % of control under setting [11]; 55 % of control (dose: 600.0 mg/kg/injection, schedule: Q04DX003 (ip), vehicle: saline with Tween-80); 93 % of control (dose: 1200.0 mg/kg/injection, schedule: Q04DX003 (ip), vehicle: saline with Tween-80).
In the case of `O=[N+]([O-])c1ccc(N(CCO)CCO)c2c1no[n+]2[O-]`, the T/C reads like this: (dose: 12.5 mg/kg/injection, schedule: Q04DX003 (ip), vehicle: saline with Tween-80) 53 % of control; under setting [4], 83 % of control; under setting [1], 34 % of control.
